Test results as given in ChEMBL document CHEMBL5154842, “Unique Carbazole-Oxadiazole Derivatives as New Potential Antibiotics for Combating Gram-Positive and -Negative Bacteria” (J Med Chem, 2022).
Converted amounts (≈) assume the structure as drawn.

Key:
Type in all cases: functional
[1] = test system: Pseudomonas aeruginosa; experiment: Antibacterial activity against Pseudomonas aeruginosa ATCC 27853 assessed as inhibition of bacterial growth incubated for 24 hrs by CLSI protocol based two fold serial dilution method
[2] = test system: Pseudomonas aeruginosa; experiment: Antibacterial activity against Pseudomonas aeruginosa assessed as inhibition of bacterial growth incubated for 24 hrs by CLSI protocol based two fold serial dilution method
[3] = test system: Enterococcus faecalis; experiment: Antibacterial activity against Enterococcus faecalis assessed as inhibition of bacterial growth incubated for 24 hrs by CLSI protocol based two fold serial dilution method
[4] = test system: Acinetobacter baumannii; experiment: Antibacterial activity against Acinetobacter baumannii assessed as inhibition of bacterial growth incubated for 24 hrs by CLSI protocol based two fold serial dilution method
[5] = test system: Escherichia coli; experiment: Antibacterial activity against Escherichia coli assessed as inhibition of bacterial growth incubated for 24 hrs by CLSI protocol based two fold serial dilution method
[6] = test system: Staphylococcus aureus; experiment: Antibacterial activity against methicillin-resistant Staphylococcus aureus N315 assessed as inhibition of bacterial growth incubated for 24 hrs by CLSI protocol based two fold serial dilution method
[7] = test system: Klebsiella pneumoniae; experiment: Antibacterial activity against Klebsiella pneumonia assessed as inhibition of bacterial growth incubated for 24 hrs by CLSI protocol based two fold serial dilution method
[8] = test system: Staphylococcus aureus; experiment: Antibacterial activity against Staphylococcus aureus assessed as inhibition of bacterial growth incubated for 24 hrs by CLSI protocol based two fold serial dilution method
[9] = test system: Staphylococcus aureus; experiment: Antibacterial activity against Staphylococcus aureus 25923 assessed as inhibition of bacterial growth incubated for 24 hrs by CLSI protocol based two fold serial dilution method
[10] = test system: Escherichia coli; experiment: Antibacterial activity against Escherichia coli 25922 assessed as inhibition of bacterial growth incubated for 24 hrs by CLSI protocol based two fold serial dilution method
[11] = test system: Staphylococcus aureus; experiment: Antibacterial activity against Staphylococcus aureus 29213 assessed as inhibition of bacterial growth incubated for 24 hrs by CLSI protocol based two fold serial dilution method

| Compound | MIC [1] | MIC [2] | MIC [3] | MIC [4] | MIC [5] | MIC [6] | MIC [7] | MIC [8] | MIC [9] | MIC [10] | MIC [11] |
| --- | --- | --- | --- | --- | --- | --- | --- | --- | --- | --- | --- |
| CC(C)=CCn1c2ccccc2c2c(OCc3nnn[nH]3)cccc21 | 0.5 µg/mL (≈ 1.5 µM) | 256 µg/mL (≈ 768 µM) | 256 µg/mL (≈ 768 µM) | 32 µg/mL (≈ 96 µM) | 32 µg/mL (≈ 96 µM) | 16 µg/mL (≈ 48 µM) | 32 µg/mL (≈ 96 µM) | 256 µg/mL (≈ 768 µM) | 64 µg/mL (≈ 192 µM) | 128 µg/mL (≈ 384 µM) | 32 µg/mL (≈ 96 µM) |
| CN[C@H](CC(C)C)C(=O)N[C@H]1C(=O)N[C@@H](CC(N)=O)C(=O)N[C@H]2C(=O)N[C@H]3C(=O)N[C@H](C(=O)N[C@H](C(=O)O)c4cc(O)cc(O)c4-c4cc3ccc4O)[C@H](O)c3ccc(c(Cl)c3)Oc3cc2cc(c3O[C@@H]2O[C@H](CO)[C@@H](O)[C@H](O)[C@H]2O[C@H]2C[C@](C)(N)[C@H](O)[C@H](C)O2)Oc2ccc(cc2Cl)[C@H]1O [VANCOMYCIN] |  |  | 2 µg/mL (≈ 1.38 µM) |  |  |  |  |  |  |  |  |
| Sc1nnc(COc2cccc3[nH]c4ccccc4c23)o1 | 64 µg/mL (≈ 215 µM) | 256 µg/mL (≈ 861 µM) | 2 µg/mL (≈ 6.73 µM) | 64 µg/mL (≈ 215 µM) | 1 µg/mL (≈ 3.36 µM) | 2 µg/mL (≈ 6.73 µM) | 4 µg/mL (≈ 13.5 µM) | 64 µg/mL (≈ 215 µM) | 64 µg/mL (≈ 215 µM) | 4 µg/mL (≈ 13.5 µM) | 128 µg/mL (≈ 430 µM) |
| c1ccc2c(c1)[nH]c1cccc(OCc3nnn[nH]3)c12 | 0.5 µg/mL (≈ 1.88 µM) | 128 µg/mL (≈ 483 µM) | 64 µg/mL (≈ 241 µM) | 128 µg/mL (≈ 483 µM) | 128 µg/mL (≈ 483 µM) | 0.5 µg/mL (≈ 1.88 µM) | 64 µg/mL (≈ 241 µM) | 128 µg/mL (≈ 483 µM) | 128 µg/mL (≈ 483 µM) | 128 µg/mL (≈ 483 µM) | 128 µg/mL (≈ 483 µM) |
| Sc1nnc(COc2cccc3c2c2ccccc2n3Cc2nnc(S)o2)o1 | 128 µg/mL (≈ 311 µM) | 128 µg/mL (≈ 311 µM) | 32 µg/mL (≈ 77.8 µM) | 128 µg/mL (≈ 311 µM) | 32 µg/mL (≈ 77.8 µM) | 32 µg/mL (≈ 77.8 µM) | 64 µg/mL (≈ 156 µM) | 32 µg/mL (≈ 77.8 µM) | 64 µg/mL (≈ 156 µM) | 32 µg/mL (≈ 77.8 µM) | 64 µg/mL (≈ 156 µM) |
| Sc1nnc(Cn2c3ccccc3c3c(OCc4ccc(Cl)cc4)cccc32)o1 | 256 µg/mL (≈ 607 µM) | 256 µg/mL (≈ 607 µM) | 256 µg/mL (≈ 607 µM) | 256 µg/mL (≈ 607 µM) | 256 µg/mL (≈ 607 µM) | 256 µg/mL (≈ 607 µM) | 256 µg/mL (≈ 607 µM) | 256 µg/mL (≈ 607 µM) | 256 µg/mL (≈ 607 µM) | 4 µg/mL (≈ 9.48 µM) | 256 µg/mL (≈ 607 µM) |
